Laboratory results from article PMC7287031 (Pharmacology Research & Perspectives, 2020).
Where two headings read alike, the source gives them in different places.

What was measured:
[1] = Rat pharmacokinetic studies: plasma PK of ribociclib after single i.v. or oral dose; assay type: in vivo; details: for Vd: read-out: Vss; for half-life: read-out: t½ (converted)
Method: ADME studies (including QWBA in pigmented and non‐pigmented rats) using radiolabeled ribociclib were conducted in rat and dog. Relevant institutional and national guides for the care and use of laboratory animals were followed. […]

[2] = Human ADME study: mass balance, excretion of radioactivity in urine and feces; assay type: in vivo; details: for radioactive dose excreted in urine: N=6, after 504 hours, mean; for Cumulative excretion of radioactivity, Total (urine and feces, mean) / Cumulative excretion of radioactivity, Urine (mean): single oral dose 600 mg, healthy male volunteers, n=6
Method: This single‐center, open‐label, single oral dose study enrolled six healthy, non‐smoking, male Caucasian volunteers who were determined as being in good health according to their medical history, physical examination, vital signs, electrocardiogram, laboratory tests, and urinalysis. Healthy male volunteers were selected as the foundation of the extensive human ADME data should be based on a small cohort (6) of young healthy male volunteers with subsequent extension/bridging to actual patients as needed for the investigation of variables such as age, gender, ethnicity, and health on the metabolic profile. Subjects with relevant radiation exposure of > 0.2 mSv in the 12 months prior to the initiation of the study were excluded. […] The study protocol and dosimetry calculations were reviewed by the Independent Ethics Committee for the center, and written informed consent was obtained from all subjects before entering the study.
Subjects continued to fast for 4 hours after drug administration.
Radioactivity contents in urine and feces homogenates were determined at the bioanalytical laboratory of PRA International, Zuidlaren, the Netherlands. For urine, duplicate (1000 µL) aliquots were placed into 7‐mL glass vials (Perkin Elmer), after which 5 mL of scintillation cocktail (Ultima Gold™, Perkin Elmer) was added. After vortex mixing for 5 seconds, each sample was placed in a Tri‐Carb™ 3100 TR liquid scintillation analyzer (Perkin Elmer, Waltham, MA, USA) 30 minutes before counting. The total [^14C]‐radioactivity of the samples was determined by counting until a statistical error (two standard deviations) of 0.5% was obtained with a counting time of 10 or 30 minutes, depending on the level of radioactivity.
For feces homogenates, quadruplicate, accurately weighed (500 mg) aliquots were dried in a stove at 50 °C for 3 hours. […] The absorber agent for CO2 was 7‐mL Carbo‐Sorb® E (Perkin Elmer). At the end of the combustion cycle, the absorber was mixed with 13 mL of the scintillant Permafluor® E (Perkin Elmer). The samples were placed in the liquid scintillation analyzer for 60 minutes before counting. The total [^14C]‐radioactivity of the samples was determined by counting until a statistical error (2 s) of 0.5% was obtained with a counting time of 10 or 30 minutes, depending on the level of radioactivity.

[3] = female, Hanover Wistar, iv, rat f (3), i.v., 4.2 mg base/kg
[4] = female, rat f (3), po, 11.1 mg base/kg
[5] = female, rat f (4), po, 51.2 mg base/kg
[6] = male, Hanover Wistar, rat m (3), po, 9.8 mg base/kg
[7] = male, Sprague Dawley, 5 mg/kg, rat m (3), po, 5.0 mg base/kg
[8] = male, Sprague Dawley, iv, 2 mg/kg, rat m (2), i.v., 2.0 mg base/kg

CN(C)C(=O)c1cc2cnc(Nc3ccc(N4CCNCC4)cn3)nc2n1C1CCCC1 [ribociclib, Ribociclib]
Vd [1, 3]: 12.2 L/kg | half-life [1, 3]: 1.9 h | AUC(0-t) ([1]; female, Hanover Wistar, rat, iv, 4.2 mg base/kg): 508 ng·h/mL | clearance ([1]; female, iv, rat f (3), 4.2 mg base/kg): 130 mL/min/kg | Cmax [1, 4]: 59.1 ng/mL | Tmax [1, 4]: 2 h | AUC(0-t) ([1]; female, rat f (3), po, 11.1 mg base/kg, AUC interval 24 h): 360 ng·h/mL | Cmax [1, 5]: 1090 ng/mL | Tmax [1, 5]: 0.3 h | half-life [1, 5]: 2 h | AUC(0-t) ([1]; female, rat, po, 51.2 mg base/kg): 3100 ng·h/mL | clearance ([1]; male, Hanover Wistar, iv, rat m (3), 4.1 mg base/kg): 46.7 mL/min/kg | half-life ([1]; male, Hanover Wistar, iv, rat m (3), i.v., 4.1 mg base/kg): 3.2 h | Cmax [1, 6]: 130 ng/mL | Tmax [1, 6]: 4 h | AUC(0-t) ([1]; male, Hanover Wistar, rat m (3), po, 9.8 mg base/kg, AUC interval 24 h): 1340 ng·h/mL | AUC(0-t) ([1]; male, Hanover Wistar, rat, iv, 4.1 mg base/kg): 1440 ng·h/mL | Cmax [1, 7]: 126 ng/mL | Tmax [1, 7]: 2 h | bioavailability [1, 7]: 55% | Vd [1, 8]: 9.9 L/kg | half-life [1, 8]: 2.8 h | AUC(0-t) ([1]; male, Sprague Dawley, rat, iv, 2 mg/kg): 587 ng·h/mL | AUC(0-t) ([1]; male, Sprague Dawley, rat, po, 5 mg/kg): 672 ng·h/mL | clearance ([1]; male, iv, rat m (2), 2.0 mg base/kg): 51.7 mL/min/kg | Vd ([1]; male, iv, rat m (3), i.v., 4.1 mg base/kg): 7.9 L/kg | bioavailability ([1]; male, rat m (3), po, 9.8 mg base/kg): 37% | radioactive dose excreted in urine ([2]; human, single oral 600 mg [14C]-ribociclib): 22.6% | radioactive dose excreted in urine ([2]; human, single oral 600 mg [14C]-ribociclib, listed as [^14C]‐ribociclib): 22.6 ± 5.39% | mass balance (total recovery of radioactivity) ([2]; human, single oral 600 mg [14C]-ribociclib, N=6, mean): 91.7 ± 1.01% | Oral absorption (estimate) ([2]; human, radioactivity in urine plus radiolabeled metabolites in feces, assuming all formed systemically): approximately 58.8% | Cumulative excretion of radioactivity, Total (urine and feces, mean) ([2]; time 0 h): 0 % of dose | Cumulative excretion of radioactivity, Urine (mean) ([2]; time 0 h): 0 % of dose | Cumulative excretion of radioactivity, Urine (mean) ([2]; time 6 h): 4.85 % of dose | Cumulative excretion of radioactivity, Urine (mean) ([2]; time 12 h): 9.15 % of dose | Cumulative excretion of radioactivity, Total (urine and feces, mean) ([2]; time 24 h): 17.2 % of dose | Cumulative excretion of radioactivity, Urine (mean) ([2]; time 24 h): 12.9 % of dose | Cumulative excretion of radioactivity, Total (urine and feces, mean) ([2]; time 48 h): 47.5 % of dose | Cumulative excretion of radioactivity, Urine (mean) ([2]; time 48 h): 17.0 % of dose | Cumulative excretion of radioactivity, Total (urine and feces, mean) ([2]; time 72 h): 63.9 % of dose | Cumulative excretion of radioactivity, Urine (mean) ([2]; time 72 h): 19.0 % of dose | Cumulative excretion of radioactivity, Total (urine and feces, mean) ([2]; time 96 h): 75.9 % of dose | Cumulative excretion of radioactivity, Urine (mean) ([2]; time 96 h): 20.2 % of dose | Cumulative excretion of radioactivity, Total (urine and feces, mean) ([2]; time 120 h): 79.7 % of dose | Cumulative excretion of radioactivity, Urine (mean) ([2]; time 120 h): 20.9 % of dose | Cumulative excretion of radioactivity, Total (urine and feces, mean) ([2]; time 144 h): 83.8 % of dose | Cumulative excretion of radioactivity, Urine (mean) ([2]; time 144 h): 21.4 % of dose | Cumulative excretion of radioactivity, Total (urine and feces, mean) ([2]; time 168 h): 86.7 % of dose | Cumulative excretion of radioactivity, Urine (mean) ([2]; time 168 h): 21.8 % of dose | Cumulative excretion of radioactivity, Total (urine and feces, mean) ([2]; time 216 h): 88.6 % of dose | Cumulative excretion of radioactivity, Urine (mean) ([2]; time 216 h): 22.2 % of dose | Cumulative excretion of radioactivity, Total (urine and feces, mean) ([2]; time 240 h): 89.1 % of dose | Cumulative excretion of radioactivity, Urine (mean) ([2]; time 240 h): 22.3 % of dose | Cumulative excretion of radioactivity, Total (urine and feces, mean) ([2]; time 264 h): 89.6 % of dose | Cumulative excretion of radioactivity, Urine (mean) ([2]; time 264 h): 22.5 % of dose | Cumulative excretion of radioactivity, Total (urine and feces, mean) ([2]; time 288 h): 90.3 % of dose | Cumulative excretion of radioactivity, Urine (mean) ([2]; time 288 h): 22.5 % of dose | Cumulative excretion of radioactivity, Total (urine and feces, mean) ([2]; time 336 h): 90.9 % of dose | Cumulative excretion of radioactivity, Urine (mean) ([2]; time 336 h): 22.6 % of dose | Cumulative excretion of radioactivity, Total (urine and feces, mean) ([2]; time 360 h): 91.1 % of dose | Cumulative excretion of radioactivity, Urine (mean) ([2]; time 360 h): 22.6 % of dose | Cumulative excretion of radioactivity, Total (urine and feces, mean) ([2]; time 384 h): 91.3 % of dose | Cumulative excretion of radioactivity, Urine (mean) ([2]; time 384 h): 22.6 % of dose | Cumulative excretion of radioactivity, Total (urine and feces, mean) ([2]; time 408 h): 91.4 % of dose | Cumulative excretion of radioactivity, Urine (mean) ([2]; time 408 h): 22.6 % of dose | Cumulative excretion of radioactivity, Total (urine and feces, mean) ([2]; time 432 h): 91.6 % of dose | Cumulative excretion of radioactivity, Urine (mean) ([2]; time 432 h): 22.6 % of dose | Cumulative excretion of radioactivity, Total (urine and feces, mean) ([2]; time 456 h): 91.6 % of dose | Cumulative excretion of radioactivity, Urine (mean) ([2]; time 456 h): 22.6 % of dose | Cumulative excretion of radioactivity, Total (urine and feces, mean) ([2]; time 480 h): 91.7 % of dose | Cumulative excretion of radioactivity, Urine (mean) ([2]; time 480 h): 22.6 % of dose | Cumulative excretion of radioactivity, Total (urine and feces, mean) ([2]; time 504 h): 91.7 % of dose | Cumulative excretion of radioactivity, Urine (mean) ([2]; time 504 h): 22.6 % of dose
